Laboratory results as given in patent publication US7943639B2, “Compounds” (Proximagen Limited, priority 2002, dated 2011).
pKi: −log10 of the molar value. Counter-ions that a name gives are not always drawn. Like-named read-outs stand apart in the source and are kept apart here.

Columns and labels:
human 5-HT6 receptor = biological target: T1, human 5-HT6 receptor (Homo sapiens, UniProt P50406); test: 5-HT6 binding assay ([3H]-LSD, SPA, membranes of transfected HEK293 cells); details: for Ki: In vitro binding at the human 5-HT6 receptor, [3H]-LSD as labeled ligand, read-out: Ki (nM) human 5-HT6
T1 construct: expressed in transfected cells; host or cells: HEK-293 cells under G-418 selection; membranes were prepared from them
T1 sequence (P50406 whole entry): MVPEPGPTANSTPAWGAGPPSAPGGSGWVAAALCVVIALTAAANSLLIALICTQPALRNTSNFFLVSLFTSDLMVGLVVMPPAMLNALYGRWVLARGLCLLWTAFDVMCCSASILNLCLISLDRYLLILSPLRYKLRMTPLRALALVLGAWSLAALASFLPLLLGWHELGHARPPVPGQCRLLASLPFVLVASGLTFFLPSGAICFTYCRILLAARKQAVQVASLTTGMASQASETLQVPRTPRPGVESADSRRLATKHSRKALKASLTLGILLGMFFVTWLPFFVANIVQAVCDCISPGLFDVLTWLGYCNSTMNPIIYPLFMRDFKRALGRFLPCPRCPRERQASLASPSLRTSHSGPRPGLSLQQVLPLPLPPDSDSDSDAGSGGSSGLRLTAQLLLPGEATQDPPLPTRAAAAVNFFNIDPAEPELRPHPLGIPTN

Ob/ob mice = test: In vivo assay of reduction of food intake; set-up: species or system mouse; details: infusion 50 mg/kg/d, measured at steady state
Protocol: (c) In Vivo Assay of Reduction of Food Intake
Obese (ob/ob) mouse is selected as the primary animal model for screening as this mutant mouse consumes high amounts of food resulting in a high signal to noise ratio. To further substantiate and compare efficacy data, the effect of the compounds on food consumption is also studied in wild type (C57BL/6J) mice. The amount of food consumed during 15 hours of infusion of compounds is recorded.
Male mice (obese C57BL/6JBom-Lep^ob and lean wild-type C57B1/6JBom; Bomholtsgaard, Denmark) 8-9 weeks with an average body weight of 50 g (obese) and 25 g (lean) are used in all the studies. The animals are housed singly in cages at 23±1° C., 40-60% humidity and have free access to water and standard laboratory chow. The 12/12-h light/dark cycle is set to lights off at 5 p.m. The animals are conditioned for at least one week before start of study.
The test compounds are dissolved in solvents suitable for each specific compound such as cyclodextrin, cyclodextrin/methane sulfonic acid, polyethylene glycol/methane sulfonic acid, saline. Fresh solutions are made for each study. Doses of 30, 50 and 100 mg kg^−1day^−1 are used. The purity of the test compounds is of analytical grade.
The animals are weighed at the start of the study and randomized based on body weight. Alzet osmotic minipumps (Model 2001D; infusion rate 8 μl/h) are used and loaded essentially as recommended by the Alzet technical information manual (Alza Scientific Products, 1997; Theeuwes, F. and Yam, S. I. Ann. Biomed. Eng. 4(4). 343-353, 1976). Continuous subcutaneous infusion with 24 hours duration is used. […]
The weight of the food pellets are measured at 5 p.m. and at 8 p.m. for two days before (baseline) and one day after the implantation of the osmotic minipumps. […]
Food consumption for 15 hours is measured for the three consecutive days and the percentage of basal level values is derived for each animal from the day before and after treatment. The values are expressed as mean±SD and ±SEM from eight animals per dose group. […]

[1] = Plasma drug concentration at steady state in the food intake study; assay type: in vivo; details: mouse, subcutaneous, 50 mg/kg/day, Ob/ob mice, single administration 50 mg/kg/d, read-out: Css, u
Protocol: The animals are weighed at the start of the study and randomized based on body weight. Alzet osmotic minipumps (Model 2001D; infusion rate 8 μl/h) are used and loaded essentially as recommended by the Alzet technical information manual (Alza Scientific Products, 1997; Theeuwes, F. and Yam, S. I. Ann. Biomed. Eng. 4(4). 343-353, 1976). Continuous subcutaneous infusion with 24 hours duration is used. The minipumps are either filled with different concentrations of test compounds dissolved in vehicle or with only vehicle solution and maintained in vehicle pre-warmed to 37° C. (approx. 1 h). The minipumps are implanted subcutaneously in the neck/back region under short acting anesthesia (metofane/enflurane). This surgical procedure lasts approximately 5 min. It takes about 3 h to reach steady state delivery of the compound.
The weight of the food pellets are measured at 5 p.m. and at 8 p.m. for two days before (baseline) and one day after the implantation of the osmotic minipumps. The weigh-in is performed with a computer assisted Mettler Toledo PR 5002 balance. Occasional spillage is corrected for. At the end of the study the animals are killed by neck dislocation and trunk blood sampled for later analysis of plasma drug concentrations.
The plasma sample proteins are precipitated with methanol, centrifuged and the supernatant is transferred to HPLC vials and injected into the liquid chromatography/mass spectrometric system. The mass spectrometer is set for electrospray positive ion mode and Multiple Reaction Monitoring. A linear regression analysis of the standards forced through the origin is used to calculate the concentrations of the unknown samples.

Row | Ki (human 5-HT6 receptor) [nM] | concentration at 24 h [1] [nM] | Structure (SMILES) | % FI reduction (Ob/ob mice) [%] | further results
1 | 10 | 440 | Cl.O=S(=O)(c1ccccc1)c1ccc2nccc(N3CCNCC3)c2c1 [Example 1, 6-benzenesulfonyl-4-piperazin-1-yl-quinoline hydrochloride] | 12 | –
2 | – | – | NCCc1c[nH]c2ccc(O)cc12 [Example 5-HT, 5-hydroxytryptamine, reference compound] | – | Hill coefficient (human 5-HT6 receptor; inter assay variability over three experiments): 0.94 (SD 0.09)
3 | 6.5 | 20 | CC(C)(C)c1ccc(S(=O)(=O)c2ccc3nccc(N4CCNCC4)c3c2)cc1.Cl [Example 11, 6-[(4-tert-Butylphenyl)sulfonyl]-4-piperazin-1-ylquinoline hydrochloride] | 47.1 | –
4 | 10.5 | – | Cc1ccc(C)c(S(=O)(=O)c2ccc3ccnc(N4CCNCC4)c3c2)c1 [Example 20, 7-(2,5-Dimethyl-benzenesulfonyl)-1-piperazin-1-yl-isoquinoline hydrochloride] | – | –
5 | 7.5 | 200 | Cl.O=S(=O)(Nc1ccc(O[C@@H]2CCNC2)c2ccccc12)c1ccc(Cl)cc1 [Example 40, 4-Chloro-N-{4-[(3R)-pyrrolidin-3-yloxy]-1-naphthyl}benzenesulfonamide hydrochloride] | 44 | –
6 | 4.5 | – | CN1CCN(c2nccc3sc(S(=O)(=O)Nc4ccccc4)cc23)CC1 [Example 43, 4-(4-Methylpiperazin-1-yl)-N-phenylthieno[3,2-c]pyridine-2-sulfonamide hydrochloride] | – | –
7 | 13 | – | O=S(=O)(NCCc1cccs1)c1cc2c(N3CCNCC3)nccc2s1 [Example 68, 4-Piperazin-1-yl-thieno[3,2-c]pyridine-2-sulfonic acid (2-thiophen-2-yl-ethyl)-amide hydrochloride] | – | –
8 | 32 | – | O=S(=O)(c1cc2c(N3CCCNCC3)nccc2s1)c1cccc2ccccc12 [Example 85, 4-(1,4-Diazepan-1-yl)-2-[1-naphthylsulfonyl)thieno[3,2-c]pyridine hydrochloride] | – | –
9 | – | – | O=S(=O)(c1ccccc1)n1ccc2c(N3CCNCC3)nccc21 [Example 131, 1-(Phenylsulfonyl)-4-piperazin-1-yl-1H-pyrrolo[3,2-c]pyridine hydrochloride] | – | pKi (human 5-HT6 receptor): 8.30
10 | – | – | CN1C[C@@H](NS(=O)(=O)N(C)C)C[C@@H]2c3cccc4c3c(cn4C)C[C@H]21 [mesulergide, reference compound] | – | pKi (human 5-HT6 receptor; 3 nM [3H] LSD, 5-HT: over all average against two different membrane preparations, read-out: Ki value, inhibition of [3H] LSD binding (reference compounds, rank order of potency)): 5.71
